Literature values in patent US20250163027A1, “GPR88-RECEPTOR-AGONIST” (Boehringer Ingelheim International GmbH, priority 2023, published 2025).

Molecular target: hGPR88 receptor (Homo sapiens, UniProt Q9GZN0)
Conditions: value marked * : cAMP assay, not BRET

Sequence of hGPR88 receptor (Q9GZN0 whole entry): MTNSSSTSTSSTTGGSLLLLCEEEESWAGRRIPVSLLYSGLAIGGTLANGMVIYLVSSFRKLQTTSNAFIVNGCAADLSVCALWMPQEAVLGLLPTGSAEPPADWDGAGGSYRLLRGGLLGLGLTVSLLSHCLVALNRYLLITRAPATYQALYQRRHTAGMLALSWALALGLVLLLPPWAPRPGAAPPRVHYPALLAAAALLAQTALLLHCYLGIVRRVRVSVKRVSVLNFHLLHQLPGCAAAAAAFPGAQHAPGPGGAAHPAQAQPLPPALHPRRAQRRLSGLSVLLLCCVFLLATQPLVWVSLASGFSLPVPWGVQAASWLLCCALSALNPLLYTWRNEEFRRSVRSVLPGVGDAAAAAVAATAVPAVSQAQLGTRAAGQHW

EC50: > 5 µM
SMILES: COCc1ccc(-c2ccc(N(CC(C)(C)O)C(=O)C3CC3c3ccccn3)cc2)cc1 (stereo not shown) [Ex 141 in WO2022/129933]
